Reference: PubChem BioAssay (NCI)
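Where inhibition never reached the appropriate level, the endpoint shown equals the highest concentration tested. Otherwise, values were interpolated linearly from a five-concentration, 48-hour dose response in 96-well plates. GI50 = concentration required for 50% inhibition of growth. TGI denotes the concentration required for complete inhibition of growth.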

Legend:
Experiment in all cases: NCI anticancer screen, dose series, 48 h
[1] = test system: HOP-92 NSCLC
[2] = test system: A498 renal
[3] = test system: T-47D breast
[4] = test system: OVCAR-8 ovarian
[5] = test system: DU-145 prostate
[6] = test system: SK-OV-3 ovarian
[7] = test system: NCI/ADR-RES ovarian
[8] = test system: HCT-116 colon
[9] = test system: IGROV1 ovarian
[10] = test system: 786-0 renal
[11] = test system: PC-3 prostate
[12] = test system: MDA-MB-231 breast
[13] = test system: ACHN renal
[14] = test system: SF-539 CNS
[15] = test system: SF-268 CNS
[16] = test system: NCI-H226 lung
[17] = test system: OVCAR-4 ovarian
[18] = test system: NCI-H460 lung
[19] = test system: HS 578T breast
[20] = test system: SR leukemia
[21] = test system: EKVX NSCLC
[22] = test system: K-562 leukemia
[23] = test system: MOLT-4 leukemia
[24] = test system: HCC-2998 colon
[25] = test system: SN12C renal
[26] = test system: KM12 colon
[27] = test system: CCRF-CEM leukemia
[28] = test system: SK-MEL-2 melanoma
[29] = test system: HT29 colon
[30] = test system: UO-31 renal
[31] = test system: SW-620 colon
[32] = test system: UACC-62 melanoma
[33] = test system: SK-MEL-5 melanoma
[34] = test system: BT-549 breast
[35] = test system: RXF 393 renal
[36] = test system: SF-295 CNS
[37] = test system: RPMI-8226 leukemia
[38] = test system: HOP-62 NSCLC
[39] = test system: A549 NSCLC
[40] = test system: NCI-H23 lung
[41] = test system: MDA-MB-435
[42] = test system: U251 CNS
[43] = test system: SNB-19 CNS
[44] = test system: MCF7 breast
[45] = test system: TK-10 renal
[46] = test system: MALME-3M melanoma
[47] = test system: CAKI-1 renal
[48] = test system: LOX IMVI melanoma
[49] = test system: M14 melanoma
[50] = test system: OVCAR-5 ovarian
[51] = test system: HCT-15 colon
[52] = test system: UACC-257 melanoma
[53] = test system: OVCAR-3 ovarian
[54] = test system: SK-MEL-28 melanoma
[55] = test system: COLO 205 colon
[56] = test system: NCI-H522 lung
[57] = test system: SNB-75 CNS
[58] = test system: HL-60(TB) leukemia

Compound: COc1ccc(C2(c3ccc(OC)cc3)OC(=O)c3cccc4cccc2c34)cc1
- TGI [1]: > 100000 nM
- TGI [2]: > 100000 nM
- TGI [3]: 80.8 µM
- TGI [4]: > 100 µM
- TGI [5]: > 100000 nM
- TGI [6]: > 100000 nM
- TGI [7]: 7.55 µM
- TGI [8]: > 100 µM
- TGI [9]: > 100000 nM
- TGI [10]: > 100000 nM
- TGI [11]: 6.47 µM
- TGI [12]: > 100000 nM
- TGI [13]: > 100000 nM
- TGI [14]: 9.63 µM
- TGI [15]: > 100 µM
- TGI [16]: > 100000 nM
- TGI [17]: > 100000 nM
- TGI [18]: > 100000 nM
- TGI [19]: 97.4 µM
- TGI [20]: 44.8 µM
- TGI [21]: 29 µM
- TGI [22]: > 100 µM
- TGI [23]: > 100 µM
- TGI [24]: 37.5 µM
- TGI [25]: > 100000 nM
- TGI [26]: > 100000 nM
- TGI [27]: 7.71 µM
- TGI [28]: > 100000 nM
- TGI [29]: 5.98 µM
- TGI [30]: > 100000 nM
- TGI [31]: > 100 µM
- TGI [32]: > 100000 nM
- TGI [33]: > 100000 nM
- TGI [34]: > 100000 nM
- TGI [35]: > 100000 nM
- TGI [36]: > 100000 nM
- TGI [37]: 8.8 µM
- TGI [38]: > 100000 nM
- TGI [39]: > 100 µM
- TGI [40]: > 100000 nM
- TGI [41]: > 100000 nM
- TGI [42]: > 100 µM
- TGI [43]: > 100 µM
- TGI [44]: > 100000 nM
- TGI [45]: 96.4 µM
- TGI [46]: > 100000 nM
- TGI [47]: 9.87 µM
- TGI [48]: > 100000 nM
- TGI [49]: > 100000 nM
- TGI [50]: > 100 µM
- TGI [51]: > 100 µM
- TGI [52]: > 100000 nM
- TGI [53]: > 100000 nM

Compound: CCSc1oc(-c2ccccc2)nc1[P+](c1ccccc1)(c1ccccc1)c1ccccc1
- GI50 [54]: 467 nM
- TGI [54]: 2320 nM
- GI50 [1]: 150 nM
- TGI [1]: 551 nM
- GI50 [2]: 126 nM
- TGI [2]: 579 nM
- GI50 [3]: 68.6 nM
- TGI [3]: 1.15 µM
- GI50 [4]: 275 nM
- TGI [4]: 12.3 µM
- GI50 [5]: 314 nM
- TGI [5]: 2630 nM
- GI50 [6]: 275 nM
- TGI [6]: 977 nM
- GI50 [7]: 2290 nM
- TGI [7]: 9.58 µM
- GI50 [8]: 218 nM
- TGI [8]: 3.42 µM
- GI50 [9]: 285 nM
- TGI [9]: 1530 nM
- GI50 [10]: 376 nM
- TGI [10]: 2110 nM
- GI50 [11]: 213 nM
- TGI [11]: 1.44 µM
- GI50 [12]: 266 nM
- TGI [12]: 1080 nM
- GI50 [13]: 309 nM
- TGI [13]: 1130 nM
- GI50 [55]: 186 nM
- TGI [55]: 420 nM
- GI50 [14]: 376 nM
- TGI [14]: 2.85 µM
- GI50 [56]: 261 nM
- TGI [56]: 1090 nM
- GI50 [15]: 331 nM
- TGI [15]: 4.02 µM
- GI50 [16]: 286 nM
- TGI [16]: 1860 nM
- GI50 [17]: 217 nM
- TGI [17]: 1480 nM
- GI50 [18]: 298 nM
- TGI [18]: 1080 nM
- GI50 [57]: 177 nM
- TGI [57]: 727 nM
- GI50 [19]: 314 nM
- TGI [19]: 2.72 µM
- GI50 [20]: 377 nM
- TGI [20]: 24.2 µM
- GI50 [21]: 289 nM
- TGI [21]: 1.84 µM
- GI50 [22]: 152 nM
- TGI [22]: 3.45 µM
- GI50 [24]: 418 nM
- TGI [24]: 2.16 µM
- GI50 [25]: 298 nM
- TGI [25]: 1230 nM
- GI50 [26]: 233 nM
- TGI [26]: 1090 nM
- GI50 [27]: 320 nM
- TGI [27]: 3.21 µM
- GI50 [28]: 276 nM
- TGI [28]: 866 nM
- GI50 [29]: 238 nM
- TGI [29]: 2.33 µM
- GI50 [30]: 321 nM
- TGI [30]: 1380 nM
- GI50 [31]: 305 nM
- TGI [31]: 7.32 µM
- GI50 [32]: 305 nM
- TGI [32]: 1440 nM
- GI50 [33]: 164 nM
- TGI [33]: 315 nM
- GI50 [34]: 281 nM
- TGI [34]: 1680 nM
- GI50 [35]: 331 nM
- TGI [35]: 1930 nM
- GI50 [36]: 241 nM
- TGI [36]: 739 nM
- GI50 [37]: 135 nM
- TGI [37]: 0.52 µM
- GI50 [38]: 308 nM
- TGI [38]: 1870 nM
- GI50 [39]: 301 nM
- TGI [39]: 4.71 µM
- GI50 [40]: 277 nM
- TGI [40]: 1100 nM
- GI50 [41]: 308 nM
- TGI [41]: 1120 nM
- GI50 [42]: 163 nM
- TGI [42]: 4.61 µM
- GI50 [43]: 293 nM
- TGI [43]: 3.88 µM
- GI50 [44]: 246 nM
- TGI [44]: 1280 nM
- GI50 [45]: 258 nM
- TGI [45]: 2.66 µM
- GI50 [46]: 287 nM
- TGI [46]: 1300 nM
- GI50 [47]: 790 nM
- TGI [47]: 2.66 µM
- GI50 [48]: 184 nM
- TGI [48]: 412 nM
- GI50 [49]: 334 nM
- TGI [49]: 1840 nM
- GI50 [50]: 416 nM
- TGI [50]: 6.36 µM
- GI50 [51]: 622 nM
- TGI [51]: 4.66 µM
- GI50 [58]: 149 nM
- TGI [58]: 469 nM
- GI50 [52]: 309 nM
- TGI [52]: 1280 nM
- GI50 [53]: 268 nM
- TGI [53]: 1700 nM
